Reference: US8883745B2, “C—glycolipids with enhanced Th-1 profile” (New York University, priority 2006, dated 2014)

How the values were obtained:
Type in all cases: in vivo
IFN-γ = IFN-γ levels in sera upon i.v. glycolipid administration to C57BL/6 mice (ELISA); set-up: IFN-γ levels, test 1 / IFN-γ levels, test 2 / IFN-γ levels, average / IFN-γ levels, Total / IFN-γ (B6): unit not given here; settings: for IFN-γ/IL-4 (B6): C57BL/6, ratio calculated from Tables 1-6; for IFN-γ levels, average / IFN-γ levels, test 1 / IFN-γ levels, test 2 / IFN-γ levels, Total: C57BL/6, serum; for IFN-γ levels, Total: total over hours 0-72
Outline: (§1)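 Blood is sampled from dosed animals at 0, 2, 6, 12, 24, 48 and 72 h after i.v. injection of 1 μg glycolipid in PBS. The 1:10-diluted sera are incubated 2 h at room temperature on antibody-coated plates, developed with biotinylated antibody, avidin-HRP and TMB, and quantified at 450 nm against standards.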

IL-4 [1] = experiment: IL-4 levels in sera upon i.v. glycolipid administration to C57BL/6 mice (ELISA); set-up: unit not given here; settings: for IL-4 level, Total: total over hours 0-72
Outline: as §1

IL-12 = IL-12 levels in sera upon i.v. glycolipid administration to BALB/c mice (ELISA); set-up: IL-12 levels, test 1 / IL-12 levels, test 2 / IL-12 levels, average / IL-12 levels, Total: unit not given here; settings: for IL-12/IL-4 (BALB/c): ratio calculated from Tables 1-6; for IL-12 levels, average / IL-12 levels, test 1 / IL-12 levels, test 2 / IL-12 levels, Total: serum; for IL-12 levels, Total: total over hours 0-72
Outline: as §1

IL-4 [2] = experiment: IL-4 levels in sera upon i.v. glycolipid administration to BALB/c mice (ELISA); set-up: unit not given here; settings: for IL-4 level, Total: total over hours 0-72
Outline: as §1

Compound: CCCCCCCCCCCCCCCCCCCCCCCCCC(=O)N[C@@H](CC[C@H]1O[C@H](CO)[C@H](O)[C@H](O)[C@H]1O)[C@H](O)[C@H](O)CCCCCCCCCCCCCC [CRONY, reference compound]
- IFN-γ/IL-4 (B6) (IFN-γ): 17
- IFN-γ levels, average (IFN-γ; hour 0): 31
- IFN-γ levels, test 1 (IFN-γ; hour 0): 31
- IFN-γ levels, test 2 (IFN-γ; hour 0): 31
- IFN-γ levels, average (IFN-γ; hour 2): 355.5
- IFN-γ levels, test 1 (IFN-γ; hour 2): 359
- IFN-γ levels, test 2 (IFN-γ; hour 2): 352
- IFN-γ levels, average (IFN-γ; hour 6): 1094.5
- IFN-γ levels, test 1 (IFN-γ; hour 6): 1083
- IFN-γ levels, test 2 (IFN-γ; hour 6): 1106
- IFN-γ levels, average (IFN-γ; hour 12): 2512.5
- IFN-γ levels, test 1 (IFN-γ; hour 12): 2667
- IFN-γ levels, test 2 (IFN-γ; hour 12): 2358
- IFN-γ levels, average (IFN-γ; hour 24): 6589.5
- IFN-γ levels, test 1 (IFN-γ; hour 24): 6511
- IFN-γ levels, test 2 (IFN-γ; hour 24): 6668
- IFN-γ levels, average (IFN-γ; hour 48): 777.5
- IFN-γ levels, test 1 (IFN-γ; hour 48): 798
- IFN-γ levels, test 2 (IFN-γ; hour 48): 757
- IFN-γ levels, average (IFN-γ; hour 72): 290
- IFN-γ levels, test 1 (IFN-γ; hour 72): 279
- IFN-γ levels, test 2 (IFN-γ; hour 72): 301
- IFN-γ levels, Total (IFN-γ): 11653
- IFN-γ (B6) (IFN-γ; C57BL/6, total from Table 2): 11652
- IL-4 level, average (IL-4 [1]; hour 0): 46
- IL-4 level, test 1 (IL-4 [1]; hour 0): 46
- IL-4 level, test 2 (IL-4 [1]; hour 0): 46
- IL-4 level, average (IL-4 [1]; hour 2): 464
- IL-4 level, test 1 (IL-4 [1]; hour 2): 286
- IL-4 level, test 2 (IL-4 [1]; hour 2): 642
- IL-4 level, average (IL-4 [1]; hour 6): 73
- IL-4 level, test 1 (IL-4 [1]; hour 6): 48
- IL-4 level, test 2 (IL-4 [1]; hour 6): 98
- IL-4 level, average (IL-4 [1]; hour 12): 34
- IL-4 level, test 1 (IL-4 [1]; hour 12): 12
- IL-4 level, test 2 (IL-4 [1]; hour 12): 56
- IL-4 level, average (IL-4 [1]; hour 24): 23
- IL-4 level, test 1 (IL-4 [1]; hour 24): 16
- IL-4 level, test 2 (IL-4 [1]; hour 24): 30
- IL-4 level, average (IL-4 [1]; hour 48): 11.5
- IL-4 level, test 1 (IL-4 [1]; hour 48): 17
- IL-4 level, test 2 (IL-4 [1]; hour 48): 6
- IL-4 level, average (IL-4 [1]; hour 72): 21.5
- IL-4 level, test 1 (IL-4 [1]; hour 72): 15
- IL-4 level, test 2 (IL-4 [1]; hour 72): 28
- IL-4 level, Total (IL-4 [1]): 674
- IL-12/IL-4 (BALB/c) (IL-12): 7
- IL-12 levels, average (IL-12; hour 0): 5
- IL-12 levels, test 1 (IL-12; hour 0): 5
- IL-12 levels, test 2 (IL-12; hour 0): 5
- IL-12 levels, average (IL-12; hour 2): 66
- IL-12 levels, test 1 (IL-12; hour 2): 7
- IL-12 levels, test 2 (IL-12; hour 2): 125
- IL-12 levels, average (IL-12; hour 6): 1525
- IL-12 levels, test 1 (IL-12; hour 6): 1556
- IL-12 levels, test 2 (IL-12; hour 6): 1494
- IL-12 levels, average (IL-12; hour 12): 1888.5
- IL-12 levels, test 1 (IL-12; hour 12): 1717
- IL-12 levels, test 2 (IL-12; hour 12): 2060
- IL-12 levels, average (IL-12; hour 24): 210
- IL-12 levels, test 1 (IL-12; hour 24): 338
- IL-12 levels, test 2 (IL-12; hour 24): 82
- IL-12 levels, average (IL-12; hour 48): 238
- IL-12 levels, test 1 (IL-12; hour 48): 328
- IL-12 levels, test 2 (IL-12; hour 48): 148
- IL-12 levels, average (IL-12; hour 72): 91.5
- IL-12 levels, test 1 (IL-12; hour 72): 9
- IL-12 levels, test 2 (IL-12; hour 72): 174
- IL-12 levels, Total (IL-12): 4025
- IL-4 level, average (IL-4 [2]; hour 0): 27
- IL-4 level, test 1 (IL-4 [2]; hour 0): 27
- IL-4 level, test 2 (IL-4 [2]; hour 0): 27
- IL-4 level, average (IL-4 [2]; hour 2): 262.5
- IL-4 level, test 1 (IL-4 [2]; hour 2): 264
- IL-4 level, test 2 (IL-4 [2]; hour 2): 261
- IL-4 level, average (IL-4 [2]; hour 6): 87
- IL-4 level, test 1 (IL-4 [2]; hour 6): 80
- IL-4 level, test 2 (IL-4 [2]; hour 6): 94
- IL-4 level, average (IL-4 [2]; hour 12): 49
- IL-4 level, test 1 (IL-4 [2]; hour 12): 45
- IL-4 level, test 2 (IL-4 [2]; hour 12): 53
- IL-4 level, average (IL-4 [2]; hour 24): 47.5
- IL-4 level, test 1 (IL-4 [2]; hour 24): 49
- IL-4 level, test 2 (IL-4 [2]; hour 24): 46
- IL-4 level, average (IL-4 [2]; hour 48): 46.5
- IL-4 level, test 1 (IL-4 [2]; hour 48): 45
- IL-4 level, test 2 (IL-4 [2]; hour 48): 48
- IL-4 level, average (IL-4 [2]; hour 72): 67
- IL-4 level, test 1 (IL-4 [2]; hour 72): 67
- IL-4 level, test 2 (IL-4 [2]; hour 72): 67
- IL-4 level, Total (IL-4 [2]): 588

Compound: CCCCCCCCCCCCCCCCCCCCCCCCCCCCC(=O)N[C@@H](/C=C/[C@H]1O[C@H](CO)[C@H](O)[C@H](O)[C@H]1O)[C@H](O)[C@H](O)CCCCCCCCCCCCCC [A-2, (3S,4S,5R)-1-C-(α-D-galactopyranosyl)-3-(N-nonacosanoylamino)-4,5-nonadec-(1,2-E)-enediol]
- IFN-γ/IL-4 (B6) (IFN-γ): 16
- IFN-γ levels, average (IFN-γ; hour 0): 31
- IFN-γ levels, test 1 (IFN-γ; hour 0): 31
- IFN-γ levels, test 2 (IFN-γ; hour 0): 31
- IFN-γ levels, average (IFN-γ; hour 2): 138.5
- IFN-γ levels, test 1 (IFN-γ; hour 2): 138
- IFN-γ levels, test 2 (IFN-γ; hour 2): 139
- IFN-γ levels, average (IFN-γ; hour 6): 944.5
- IFN-γ levels, test 1 (IFN-γ; hour 6): 955
- IFN-γ levels, test 2 (IFN-γ; hour 6): 934
- IFN-γ levels, average (IFN-γ; hour 12): 2932
- IFN-γ levels, test 1 (IFN-γ; hour 12): 2427
- IFN-γ levels, test 2 (IFN-γ; hour 12): 3437
- IFN-γ levels, average (IFN-γ; hour 24): 8415
- IFN-γ levels, test 1 (IFN-γ; hour 24): 7023
- IFN-γ levels, test 2 (IFN-γ; hour 24): 9807
- IFN-γ levels, average (IFN-γ; hour 48): 464
- IFN-γ levels, test 1 (IFN-γ; hour 48): 424
- IFN-γ levels, test 2 (IFN-γ; hour 48): 504
- IFN-γ levels, average (IFN-γ; hour 72): 100.5
- IFN-γ levels, test 1 (IFN-γ; hour 72): 87
- IFN-γ levels, test 2 (IFN-γ; hour 72): 114
- IFN-γ levels, Total (IFN-γ): 13027
- IL-4 level, average (IL-4 [1]; hour 0): 46
- IL-4 level, test 1 (IL-4 [1]; hour 0): 46
- IL-4 level, test 2 (IL-4 [1]; hour 0): 46
- IL-4 level, average (IL-4 [1]; hour 2): 443
- IL-4 level, test 1 (IL-4 [1]; hour 2): 286
- IL-4 level, test 2 (IL-4 [1]; hour 2): 600
- IL-4 level, average (IL-4 [1]; hour 6): 110
- IL-4 level, test 1 (IL-4 [1]; hour 6): 95
- IL-4 level, test 2 (IL-4 [1]; hour 6): 125
- IL-4 level, average (IL-4 [1]; hour 12): 56.5
- IL-4 level, test 1 (IL-4 [1]; hour 12): 45
- IL-4 level, test 2 (IL-4 [1]; hour 12): 68
- IL-4 level, average (IL-4 [1]; hour 24): 52
- IL-4 level, test 1 (IL-4 [1]; hour 24): 46
- IL-4 level, test 2 (IL-4 [1]; hour 24): 58
- IL-4 level, average (IL-4 [1]; hour 48): 56
- IL-4 level, test 1 (IL-4 [1]; hour 48): 60
- IL-4 level, test 2 (IL-4 [1]; hour 48): 52
- IL-4 level, average (IL-4 [1]; hour 72): 61.5
- IL-4 level, test 1 (IL-4 [1]; hour 72): 59
- IL-4 level, test 2 (IL-4 [1]; hour 72): 64
- IL-4 level, Total (IL-4 [1]): 826
- IL-12/IL-4 (BALB/c) (IL-12): 30
- IL-12 levels, average (IL-12; hour 0): 5
- IL-12 levels, test 1 (IL-12; hour 0): 5
- IL-12 levels, test 2 (IL-12; hour 0): 5
- IL-12 levels, average (IL-12; hour 2): 74
- IL-12 levels, test 1 (IL-12; hour 2): 141
- IL-12 levels, test 2 (IL-12; hour 2): 7
- IL-12 levels, average (IL-12; hour 6): 7251.5
- IL-12 levels, test 1 (IL-12; hour 6): 7080
- IL-12 levels, test 2 (IL-12; hour 6): 7423
- IL-12 levels, average (IL-12; hour 12): 10800
- IL-12 levels, test 1 (IL-12; hour 12): 11600
- IL-12 levels, test 2 (IL-12; hour 12): 10000
- IL-12 levels, average (IL-12; hour 24): 442.5
- IL-12 levels, test 1 (IL-12; hour 24): 454
- IL-12 levels, test 2 (IL-12; hour 24): 431
- IL-12 levels, average (IL-12; hour 48): 66.5
- IL-12 levels, test 1 (IL-12; hour 48): 0
- IL-12 levels, test 2 (IL-12; hour 48): 133
- IL-12 levels, average (IL-12; hour 72): 222.5
- IL-12 levels, test 1 (IL-12; hour 72): 3
- IL-12 levels, test 2 (IL-12; hour 72): 442
- IL-12 levels, Total (IL-12): 18864
- IL-4 level, average (IL-4 [2]; hour 0): 27
- IL-4 level, test 1 (IL-4 [2]; hour 0): 27
- IL-4 level, test 2 (IL-4 [2]; hour 0): 27
- IL-4 level, average (IL-4 [2]; hour 2): 330
- IL-4 level, test 1 (IL-4 [2]; hour 2): 263
- IL-4 level, test 2 (IL-4 [2]; hour 2): 397
- IL-4 level, average (IL-4 [2]; hour 6): 127
- IL-4 level, test 1 (IL-4 [2]; hour 6): 90
- IL-4 level, test 2 (IL-4 [2]; hour 6): 164
- IL-4 level, average (IL-4 [2]; hour 12): 49.5
- IL-4 level, test 1 (IL-4 [2]; hour 12): 48
- IL-4 level, test 2 (IL-4 [2]; hour 12): 51
- IL-4 level, average (IL-4 [2]; hour 24): 45.5
- IL-4 level, test 1 (IL-4 [2]; hour 24): 43
- IL-4 level, test 2 (IL-4 [2]; hour 24): 48
- IL-4 level, average (IL-4 [2]; hour 48): 40.5
- IL-4 level, test 1 (IL-4 [2]; hour 48): 42
- IL-4 level, test 2 (IL-4 [2]; hour 48): 39
- IL-4 level, average (IL-4 [2]; hour 72): 2
- IL-4 level, test 1 (IL-4 [2]; hour 72): 2
- IL-4 level, test 2 (IL-4 [2]; hour 72): 2
- IL-4 level, Total (IL-4 [2]): 623
